Laboratory results reported in ChEMBL document CHEMBL1143365, “Function-oriented synthesis applied to the anti-botulinum natural product toosendanin” (Bioorg Med Chem, 2009).
Activity calls are given as the source filed them. The rule behind the calls is not given here.

Columns and labels:
Mus musculus [1] = test: Antibotulinum activity against botulinum neurotoxin serotype A-induced toxicity in iv dosed mouse after 48 hrs; format: functional, organism-based
Mus musculus [2] = species on record: Mus musculus; test: Toxicity in mouse at 2.5 mM; format: organism-based; details: in vivo, 2500 µM
Mus musculus [3] = test: Antibotulinum activity against botulinum neurotoxin serotype A-induced toxicity in iv dosed mouse assessed as time to death; format: functional

SMILES | Activity (Mus musculus [1]) | Activity (Mus musculus [2]) | Activity (Mus musculus [3])
CC(=O)OC1C(=O)CC(C)(C)C23OC2CC(c2ccccc2)C13C (racemic) | inactive | Non-toxic | –
CC(=O)O[C@@H]1C[C@H](O)[C@@]23CO[C@@H](O)[C@]1(C)[C@@H]2C[C@@H](O)[C@]1(C)[C@@H]3C(=O)[C@H](OC(C)=O)[C@@]2(C)[C@H](c3ccoc3)C[C@H]3O[C@]321 [TOOSENDANIN] | – | – | 7.1 h
